Reference: ChEMBL document CHEMBL4507265 (2021)

Experiments:
[1] = biological target: Tyrosine-protein kinase ABL1 (Homo sapiens) (UniProt P00519); settings: Compound concentration 1000.0 nM
[2] = biological target: Activin receptor type-1-like (Homo sapiens) (UniProt P37023); settings: Compound concentration 1000.0 nM
[3] = biological target: Tyrosine-protein kinase receptor UFO (Homo sapiens) (UniProt P30530); settings: Compound concentration 1000.0 nM
[4] = biological target: Cyclin-dependent kinase 2 (Homo sapiens) (UniProt P24941); settings: Compound concentration 1000.0 nM
[5] = biological target: Cyclin-dependent kinase 4 (Homo sapiens) (UniProt P11802); settings: Compound concentration 1000.0 nM
[6] = biological target: Dual specificity protein kinase CLK3 (Homo sapiens) (UniProt P49761); settings: Compound concentration 1000.0 nM
[7] = biological target: Casein kinase I isoform epsilon (Homo sapiens) (UniProt P49674); settings: Compound concentration 1000.0 nM
[8] = biological target: Discoidin domain-containing receptor 2 (Homo sapiens) (UniProt Q16832); settings: Compound concentration 1000.0 nM
[9] = biological target: Ephrin type-A receptor 2 (Homo sapiens) (UniProt P29317); settings: Compound concentration 1000.0 nM
Sequence of Ephrin type-A receptor 2 (Homo sapiens) (P29317 whole entry): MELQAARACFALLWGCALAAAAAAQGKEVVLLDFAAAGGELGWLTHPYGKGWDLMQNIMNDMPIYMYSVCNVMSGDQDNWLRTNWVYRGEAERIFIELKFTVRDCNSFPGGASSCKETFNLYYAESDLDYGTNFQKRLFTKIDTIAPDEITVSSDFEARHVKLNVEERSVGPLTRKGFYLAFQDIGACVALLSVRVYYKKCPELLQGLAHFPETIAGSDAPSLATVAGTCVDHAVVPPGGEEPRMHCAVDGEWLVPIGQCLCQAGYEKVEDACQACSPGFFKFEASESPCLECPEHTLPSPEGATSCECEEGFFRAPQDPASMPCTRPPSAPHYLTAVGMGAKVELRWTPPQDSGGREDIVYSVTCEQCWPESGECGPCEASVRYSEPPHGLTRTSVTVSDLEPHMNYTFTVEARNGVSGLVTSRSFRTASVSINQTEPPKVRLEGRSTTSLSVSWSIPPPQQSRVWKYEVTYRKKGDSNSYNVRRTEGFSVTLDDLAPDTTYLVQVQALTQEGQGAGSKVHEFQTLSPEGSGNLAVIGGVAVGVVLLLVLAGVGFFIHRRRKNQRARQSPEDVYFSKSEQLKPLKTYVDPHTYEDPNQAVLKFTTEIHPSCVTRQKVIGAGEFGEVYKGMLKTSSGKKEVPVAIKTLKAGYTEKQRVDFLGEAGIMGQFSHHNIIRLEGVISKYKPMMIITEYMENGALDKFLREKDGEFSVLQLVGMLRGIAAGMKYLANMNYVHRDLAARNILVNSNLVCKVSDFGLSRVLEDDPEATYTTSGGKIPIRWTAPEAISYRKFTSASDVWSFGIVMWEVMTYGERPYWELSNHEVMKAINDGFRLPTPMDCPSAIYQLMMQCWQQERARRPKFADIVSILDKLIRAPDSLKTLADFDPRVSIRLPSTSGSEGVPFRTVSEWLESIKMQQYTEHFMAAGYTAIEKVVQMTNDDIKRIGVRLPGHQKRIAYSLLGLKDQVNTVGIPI

[10] = biological target: Ephrin type-A receptor 8 (Homo sapiens) (UniProt P29322); settings: Compound concentration 1000.0 nM
Sequence of Ephrin type-A receptor 8 (Homo sapiens) (P29322 whole entry): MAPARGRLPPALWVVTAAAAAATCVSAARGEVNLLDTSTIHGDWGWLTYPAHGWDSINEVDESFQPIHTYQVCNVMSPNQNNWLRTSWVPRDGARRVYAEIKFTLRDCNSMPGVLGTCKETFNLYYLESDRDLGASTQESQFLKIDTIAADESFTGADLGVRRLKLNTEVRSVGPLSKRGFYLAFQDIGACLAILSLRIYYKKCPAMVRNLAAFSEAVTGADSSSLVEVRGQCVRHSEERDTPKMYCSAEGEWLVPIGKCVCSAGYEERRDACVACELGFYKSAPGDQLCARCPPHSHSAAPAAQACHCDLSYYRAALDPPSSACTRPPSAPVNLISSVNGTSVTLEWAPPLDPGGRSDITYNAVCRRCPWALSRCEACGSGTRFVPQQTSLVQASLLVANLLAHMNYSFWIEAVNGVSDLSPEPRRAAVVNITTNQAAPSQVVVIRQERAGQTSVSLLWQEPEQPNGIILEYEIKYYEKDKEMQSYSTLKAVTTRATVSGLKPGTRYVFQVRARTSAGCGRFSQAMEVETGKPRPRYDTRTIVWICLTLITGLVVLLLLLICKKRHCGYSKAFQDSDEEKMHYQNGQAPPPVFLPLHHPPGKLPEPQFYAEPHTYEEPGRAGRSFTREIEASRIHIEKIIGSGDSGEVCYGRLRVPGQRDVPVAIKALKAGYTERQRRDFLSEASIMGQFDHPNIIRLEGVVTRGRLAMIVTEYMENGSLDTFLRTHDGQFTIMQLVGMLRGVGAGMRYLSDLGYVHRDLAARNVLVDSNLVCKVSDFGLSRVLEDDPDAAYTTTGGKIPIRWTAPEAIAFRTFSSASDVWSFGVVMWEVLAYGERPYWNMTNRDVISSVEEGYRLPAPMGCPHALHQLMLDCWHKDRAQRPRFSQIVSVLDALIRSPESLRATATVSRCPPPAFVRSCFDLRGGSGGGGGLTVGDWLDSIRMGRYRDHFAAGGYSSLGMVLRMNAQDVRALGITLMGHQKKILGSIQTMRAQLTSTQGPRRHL

[11] = biological target: Mitogen-activated protein kinase 4 (Homo sapiens) (UniProt P31152); settings: Compound concentration 1000.0 nM
[12] = biological target: Serine/threonine-protein kinase/endoribonuclease IRE1 (Homo sapiens) (UniProt O75460); settings: Compound concentration 1000.0 nM
[13] = biological target: G protein-coupled receptor kinase 3 (Homo sapiens) (UniProt P35626); settings: Compound concentration 1000.0 nM
[14] = biological target: Serine/threonine-protein kinase 3 (Homo sapiens) (UniProt Q13188); settings: Compound concentration 1000.0 nM
Sequence of Serine/threonine-protein kinase 3 (Homo sapiens) (Q13188 whole entry): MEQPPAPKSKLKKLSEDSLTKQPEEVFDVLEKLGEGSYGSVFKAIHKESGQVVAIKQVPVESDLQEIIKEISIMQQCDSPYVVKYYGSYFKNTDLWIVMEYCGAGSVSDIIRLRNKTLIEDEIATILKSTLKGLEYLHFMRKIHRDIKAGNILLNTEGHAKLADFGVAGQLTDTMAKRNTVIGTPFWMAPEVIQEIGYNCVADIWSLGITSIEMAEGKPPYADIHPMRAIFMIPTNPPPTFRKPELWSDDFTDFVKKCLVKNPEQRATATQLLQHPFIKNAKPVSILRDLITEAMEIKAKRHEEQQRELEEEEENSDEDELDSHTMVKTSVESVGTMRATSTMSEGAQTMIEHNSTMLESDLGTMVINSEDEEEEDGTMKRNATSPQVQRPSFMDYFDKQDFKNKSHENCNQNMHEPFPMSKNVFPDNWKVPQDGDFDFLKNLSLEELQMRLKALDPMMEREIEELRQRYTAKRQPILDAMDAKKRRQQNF

[15] = biological target: Serine/threonine-protein kinase mTOR (Homo sapiens) (UniProt P42345); settings: Compound concentration 1000.0 nM
[16] = biological target: Serine/threonine-protein kinase Nek1 (Homo sapiens) (UniProt Q96PY6); settings: Compound concentration 1000.0 nM
[17] = biological target: Serine/threonine-protein kinase NIM1 (Homo sapiens) (UniProt Q8IY84); settings: Compound concentration 1000.0 nM
[18] = biological target: Serine/threonine-protein kinase PAK 1 (Homo sapiens) (UniProt Q13153); settings: Compound concentration 1000.0 nM
Sequence of Serine/threonine-protein kinase PAK 1 (Homo sapiens) (Q13153 whole entry): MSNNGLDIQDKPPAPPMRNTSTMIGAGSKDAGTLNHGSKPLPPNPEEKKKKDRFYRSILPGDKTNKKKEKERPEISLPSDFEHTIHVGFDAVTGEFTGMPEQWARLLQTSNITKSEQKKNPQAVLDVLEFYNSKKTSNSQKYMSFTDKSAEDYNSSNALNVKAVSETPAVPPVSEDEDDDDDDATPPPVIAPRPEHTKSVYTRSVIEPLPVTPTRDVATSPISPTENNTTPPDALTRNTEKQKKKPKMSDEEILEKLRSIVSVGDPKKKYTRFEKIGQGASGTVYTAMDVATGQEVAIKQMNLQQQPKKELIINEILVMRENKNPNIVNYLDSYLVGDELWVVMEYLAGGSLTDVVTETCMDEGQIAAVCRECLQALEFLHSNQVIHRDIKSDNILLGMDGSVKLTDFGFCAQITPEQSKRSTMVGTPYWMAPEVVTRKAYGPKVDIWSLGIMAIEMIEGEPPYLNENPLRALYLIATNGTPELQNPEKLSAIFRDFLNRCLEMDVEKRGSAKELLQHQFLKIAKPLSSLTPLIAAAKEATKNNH

[19] = biological target: 3-phosphoinositide-dependent protein kinase 1 (Homo sapiens) (UniProt O15530); settings: Compound concentration 1000.0 nM
Sequence of 3-phosphoinositide-dependent protein kinase 1 (Homo sapiens) (O15530 whole entry): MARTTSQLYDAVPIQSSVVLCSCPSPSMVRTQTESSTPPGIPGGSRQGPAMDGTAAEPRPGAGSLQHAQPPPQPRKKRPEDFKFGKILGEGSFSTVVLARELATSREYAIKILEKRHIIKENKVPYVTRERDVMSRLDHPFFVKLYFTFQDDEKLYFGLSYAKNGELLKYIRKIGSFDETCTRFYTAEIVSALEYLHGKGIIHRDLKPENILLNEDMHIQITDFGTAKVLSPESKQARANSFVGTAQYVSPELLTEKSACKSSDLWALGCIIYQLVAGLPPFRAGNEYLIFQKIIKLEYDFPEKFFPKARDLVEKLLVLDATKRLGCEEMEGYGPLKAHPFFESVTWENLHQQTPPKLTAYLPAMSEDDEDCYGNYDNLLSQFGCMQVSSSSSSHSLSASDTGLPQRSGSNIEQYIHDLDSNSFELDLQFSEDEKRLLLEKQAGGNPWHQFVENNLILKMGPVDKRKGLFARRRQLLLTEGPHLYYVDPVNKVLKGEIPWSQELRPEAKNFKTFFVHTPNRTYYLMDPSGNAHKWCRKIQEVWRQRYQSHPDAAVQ

[20] = biological target: Phosphatidylinositol 4-phosphate 5-kinase type-1 gamma (Homo sapiens) (UniProt O60331); settings: Compound concentration 1000.0 nM
[21] = biological target: Serine/threonine-protein kinase PRP4 homolog (Homo sapiens) (UniProt Q13523); settings: Compound concentration 1000.0 nM
[22] = biological target: Serine/threonine-protein kinase RIO1 (Homo sapiens) (UniProt Q9BRS2); settings: Compound concentration 1000.0 nM
[23] = biological target: Serine/threonine-protein kinase Sgk3 (Homo sapiens) (UniProt Q96BR1); settings: Compound concentration 1000.0 nM
[24] = biological target: Serine/threonine-protein kinase 35 (Homo sapiens) (UniProt Q8TDR2); settings: Compound concentration 1000.0 nM
[25] = biological target: Dual specificity testis-specific protein kinase 1 (Homo sapiens) (UniProt Q15569); settings: Compound concentration 1000.0 nM
[26] = biological target: Serine/threonine-protein kinase 25 (Homo sapiens) (UniProt O00506); settings: Compound concentration 1000.0 nM
[27] = biological target: Mitogen-activated protein kinase kinase kinase 19 (Homo sapiens) (UniProt Q56UN5); settings: Compound concentration 1000.0 nM
Sequence of Mitogen-activated protein kinase kinase kinase 19 (Homo sapiens) (Q56UN5 whole entry): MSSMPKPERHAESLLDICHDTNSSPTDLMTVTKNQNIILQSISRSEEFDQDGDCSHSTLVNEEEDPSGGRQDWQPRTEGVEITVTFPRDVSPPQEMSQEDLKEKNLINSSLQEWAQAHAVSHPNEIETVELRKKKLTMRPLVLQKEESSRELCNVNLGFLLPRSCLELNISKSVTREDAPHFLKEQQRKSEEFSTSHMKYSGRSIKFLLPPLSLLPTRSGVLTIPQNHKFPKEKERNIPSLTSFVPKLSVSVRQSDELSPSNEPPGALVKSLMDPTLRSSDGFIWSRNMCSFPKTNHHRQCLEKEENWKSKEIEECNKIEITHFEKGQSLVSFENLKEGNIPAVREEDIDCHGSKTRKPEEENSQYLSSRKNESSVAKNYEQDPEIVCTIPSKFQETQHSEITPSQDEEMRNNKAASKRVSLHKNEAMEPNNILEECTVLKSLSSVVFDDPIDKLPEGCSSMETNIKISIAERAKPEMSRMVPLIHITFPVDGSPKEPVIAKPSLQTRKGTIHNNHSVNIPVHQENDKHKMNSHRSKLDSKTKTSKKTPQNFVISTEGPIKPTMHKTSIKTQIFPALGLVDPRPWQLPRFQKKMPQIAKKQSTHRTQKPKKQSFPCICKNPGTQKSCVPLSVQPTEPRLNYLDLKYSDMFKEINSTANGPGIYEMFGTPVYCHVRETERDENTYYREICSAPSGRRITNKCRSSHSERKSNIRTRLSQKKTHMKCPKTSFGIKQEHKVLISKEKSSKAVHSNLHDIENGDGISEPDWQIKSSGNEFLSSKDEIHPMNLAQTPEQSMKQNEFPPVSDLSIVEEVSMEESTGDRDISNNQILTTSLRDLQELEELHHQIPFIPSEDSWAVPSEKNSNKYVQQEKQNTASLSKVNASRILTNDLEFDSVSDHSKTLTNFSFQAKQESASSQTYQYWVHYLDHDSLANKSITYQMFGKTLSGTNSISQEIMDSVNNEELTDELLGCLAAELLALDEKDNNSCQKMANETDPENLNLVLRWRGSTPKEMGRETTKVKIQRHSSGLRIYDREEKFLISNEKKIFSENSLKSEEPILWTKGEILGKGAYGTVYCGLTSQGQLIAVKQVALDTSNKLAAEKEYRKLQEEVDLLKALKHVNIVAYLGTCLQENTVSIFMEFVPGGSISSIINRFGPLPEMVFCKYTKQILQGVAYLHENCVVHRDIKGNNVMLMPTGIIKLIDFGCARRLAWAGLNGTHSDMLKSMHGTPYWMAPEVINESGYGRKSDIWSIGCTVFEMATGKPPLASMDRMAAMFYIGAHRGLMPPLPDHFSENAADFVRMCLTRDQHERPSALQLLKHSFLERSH

[28] = biological target: 5-hydroxytryptamine receptor 2A (Homo sapiens) (UniProt P28223); settings: Compound concentration 10.0 uM
[29] = biological target: 5-hydroxytryptamine receptor 3A (Homo sapiens) (UniProt P46098); settings: Compound concentration 10.0 uM
[30] = biological target: T1, Muscarinic acetylcholine receptor M1 (Homo sapiens) (UniProt P11229); settings: Compound concentration 10.0 uM
T1 sequence (whole entry): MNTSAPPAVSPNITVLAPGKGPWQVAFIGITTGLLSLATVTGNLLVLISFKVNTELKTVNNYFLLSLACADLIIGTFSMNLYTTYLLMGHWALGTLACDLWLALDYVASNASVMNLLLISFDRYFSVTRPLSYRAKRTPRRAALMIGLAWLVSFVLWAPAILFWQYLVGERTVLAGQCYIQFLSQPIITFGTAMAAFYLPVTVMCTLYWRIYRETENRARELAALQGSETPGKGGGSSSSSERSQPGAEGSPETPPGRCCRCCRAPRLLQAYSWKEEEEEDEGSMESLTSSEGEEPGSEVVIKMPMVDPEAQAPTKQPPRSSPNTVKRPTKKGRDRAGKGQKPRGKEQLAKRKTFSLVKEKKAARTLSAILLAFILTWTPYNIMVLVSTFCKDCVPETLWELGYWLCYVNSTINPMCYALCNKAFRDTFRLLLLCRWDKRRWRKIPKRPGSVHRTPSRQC

[31] = biological target: T2, Alpha-1D adrenergic receptor (Homo sapiens) (UniProt P25100); settings: Compound concentration 10.0 uM
T2 sequence (whole entry): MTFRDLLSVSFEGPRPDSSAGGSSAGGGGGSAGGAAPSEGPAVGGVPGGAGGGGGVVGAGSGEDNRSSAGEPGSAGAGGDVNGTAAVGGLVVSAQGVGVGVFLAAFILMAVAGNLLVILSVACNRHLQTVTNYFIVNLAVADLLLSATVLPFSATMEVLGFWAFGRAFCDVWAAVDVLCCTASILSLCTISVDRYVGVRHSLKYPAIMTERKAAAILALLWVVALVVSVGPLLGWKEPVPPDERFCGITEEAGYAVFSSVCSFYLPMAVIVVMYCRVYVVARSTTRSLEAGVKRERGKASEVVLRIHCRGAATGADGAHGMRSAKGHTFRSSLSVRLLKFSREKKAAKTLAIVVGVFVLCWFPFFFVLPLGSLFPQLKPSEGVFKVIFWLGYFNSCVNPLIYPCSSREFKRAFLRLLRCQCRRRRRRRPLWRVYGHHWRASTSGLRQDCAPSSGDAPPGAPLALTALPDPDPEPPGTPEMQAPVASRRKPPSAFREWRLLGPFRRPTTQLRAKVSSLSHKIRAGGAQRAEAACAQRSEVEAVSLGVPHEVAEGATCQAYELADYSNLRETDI

| Structure (SMILES) | residual activity [1] [%] | residual activity [2] [%] | residual activity [3] [%] | residual activity [4] [%] | residual activity [5] [%] | residual activity [6] [%] | residual activity [7] [%] | residual activity [8] [%] | residual activity [9] [%] | residual activity [10] [%] | residual activity [11] [%] | residual activity [12] [%] | residual activity [13] [%] | residual activity [14] [%] | residual activity [15] [%] | residual activity [16] [%] | residual activity [17] [%] | residual activity [18] [%] | residual activity [19] [%] | residual activity [20] [%] | also measured |
| --- | --- | --- | --- | --- | --- | --- | --- | --- | --- | --- | --- | --- | --- | --- | --- | --- | --- | --- | --- | --- | --- |
| NS(=O)(=O)c1cc(NC(=O)C2(c3ccccc3Cl)CC2)ccc1Oc1cccc(Cl)c1 [BAY-207] | 64 | 45 | 89 | 82 | 100 | 72 | 64 | 96 | 80 | 80 | 87 | 61 | 100 | 94 | 100 | 100 | 86 | 79 | 85 | 48 | residual activity [21]: 68%; residual activity [22]: 84%; residual activity [23]: 90%; residual activity [24]: 94%; residual activity [25]: 100%; residual activity [26]: 100%; residual activity [27]: 70%; inhibition [28]: 11.3%; inhibition [29]: 3.19%; inhibition [30]: -3.55%; inhibition [31]: 6.88% |
| NS(=O)(=O)c1cc(NC(=O)Cc2ccccc2)ccc1Oc1cccc(Cl)c1 [BAY-1797] | 78 | 99 | 93 | 100 | 88 | 83 | 100 | 87 | 91 | 100 | 91 | 73 | 100 | 78 | 92 | 93 | 62 | 88 | 95 | 100 | residual activity [21]: 97%; residual activity [22]: 93%; residual activity [23]: 83%; residual activity [24]: 99%; residual activity [25]: 100%; residual activity [26]: 88%; residual activity [27]: 78%; inhibition [28]: -2.5%; inhibition [29]: 19.9%; inhibition [30]: 11.4%; inhibition [31]: 2.32% |
